Results published in patent publication US8304446B2, “Compounds” (Glaxo Group Limited, priority 2009, dated 2012).
Counter-ions that a name gives are not always drawn.

The compounds below were run on CD4+ CCR4+ T cells (assay: Chemokine stimulated increases in cellular F-actin content). Settings: Homo sapiens, T-cell, 0.5 h; PBMC from normal volunteers; antagonist 30 min at 37° C. before agonist for 15 sec; F-actin content by flow cytometry; read-out: pA2 (converted).
Format: cell-based
Description: Chemokine Stimulated Increases in Cellular F-Actin Content
Blood was taken from normal volunteers who had taken no medication within the previous ten days and mixed with 1/9 of the volume of 3.8% tri-sodium citrate solution. Chemokine-induced increases in the F-actin content of CD4+ CCR4+ T cells were measured by a modification of the method of Pilette et al. (Eur. Respir. J; 23: 876-884, 2004). Peripheral blood mononuclear cells (PBMC) were isolated by dextran sedimentation followed by Percoll density gradient centrifugation. The PBMCs were incubated with FITC-conjugated anti-human CD4 and PE-conjugated anti-CCR4 antibodies or appropriate isotype controls for 15 min. The cell suspensions were then centrifuged at 400 g for 10 min and the pellets resuspended in assay buffer (phenol red-free RPMI 1640 medium containing 10 mM HEPES and 0.1% bovine serum albumin) at 10^7/mL. The resulting cell suspension was incubated with antagonist or vehicle (0.1% DMSO) for 30 min at 37° C. before stimulation with the agonist for 15 sec. The assay was terminated by addition of 3% formaldehyde. The fixed cells were washed twice with PBS (centrifuging at 1000 g for 5 min to recover the cells) and incubated at room temperature with Alexa fluor-647 phalloidin (0.075 U/mL) in the presence of lyso-phosphatidylcholine (93.75 μg/ml) for 20 min to stain F-actin. The cells were washed once more with PBS and the relative F-actin content of the cells was measured flow cytometrically. The mean fluorescence intensity of 1000 CD4^+ CCR4^+ cells per sample was determined and expressed as a fraction of the mean intensity of the CD4^+ CCR4^− cells in that sample.

Structure (SMILES) | Kb
COc1cccc2c1c(NS(=O)(=O)c1ccc(Cl)s1)nn2Cc1cccc(CNC(=O)CCN)c1 [Example 78, N^1-[(3-{[3-{[(5-Chloro-2-thienyl)sulfonyl]amino}-4-(methyloxy)-1H-indazol-1-yl]methyl}phenyl)methyl]-β-alaninamide trifluoroacetate] | ≤ 126 nM
COc1cccc2c1c(NS(=O)(=O)c1ccc(Cl)s1)nn2Cc1cccc(CNC(=O)[C@@H](N)CCC(N)=O)c1 [Example 79, N^1-[(3-{[3-{[(5-Chloro-2-thienyl)sulfonyl]amino}-4-(methyloxy)-1H-indazol-1-yl]methyl}phenyl)methyl]-L-glutamamide formate salt] | ≤ 126 nM
COc1cccc2c1c(NS(=O)(=O)c1ccc(Cl)s1)nn2Cc1cccc(CNC(=O)C2(N)CCC2)c1 [Example 83, 1-Amino-N-[(3-{[3-{[(5-chloro-2-thienyl)sulfonyl]amino}-4-(methyloxy)-1H-indazol-1-yl]methyl}phenyl)methyl]cyclobutanecarboxamide trifluoroacetate] | ≤ 126 nM
COc1cccc2c1c(NS(=O)(=O)c1ccc(Cl)s1)nn2Cc1cccc(CNC(=O)C2(N)CC2)c1 [Example 84, 1-Amino-N-[(3-{[3-{[(5-chloro-2-thienyl)sulfonyl]amino}-4-(methyloxy)-1H-indazol-1-yl]methyl}phenyl)methyl]cyclopropanecarboxamide trifluoroacetate] | ≤ 126 nM
COc1cccc2c1c(NS(=O)(=O)c1ccc(Cl)s1)nn2Cc1cccc(CNC(=O)CN(C)C)c1 [Example 86, N^1-[(3-{[3-{[(5-Chloro-2-thienyl)sulfonyl]amino}-4-(methyloxy)-1H-indazol-1-yl]methyl}phenyl)methyl]-N^2,N^2-dimethylglycinamide trifluoroacetate] | ≤ 126 nM
COc1cccc2c1c(NS(=O)(=O)c1ccc(Cl)s1)nn2Cc1cccc(CNC(=O)C2CCCO2)c1 (centres unmarked) [Example 89, N-[(3-{[3-{[(5-Chloro-2-thienyl)sulfonyl]amino}-4-(methyloxy)-1H-indazol-1-yl]methyl}phenyl)methyl]tetrahydro-2-furancarboxamide] | ≤ 126 nM
COc1cccc2c1c(NS(=O)(=O)c1ccc(Cl)s1)nn2Cc1cccc(CNC(=O)C2COCCN2C)c1 (centres unmarked) [Example 96, N-[(3-{[3-{[(5-Chloro-2-thienyl)sulfonyl]amino}-4-(methyloxy)-1H-indazol-1-yl]methyl}phenyl)methyl]-4-methyl-3-morpholinecarboxamide] | ≤ 126 nM
COc1ccc(Cn2nc(NS(=O)(=O)c3ccc(Cl)s3)c3c(OC)cccc32)cc1OCCN(C)C [Example 110, 5-Chloro-N-[1-{[3-{[2-(dimethylamino)ethyl]oxy}-4-(methyloxy)phenyl]methyl}-4-(methyloxy)-1H-indazol-3-yl]-2-thiophenesulfonamide] | ≤ 126 nM
O=C(NCc1cccc(Cn2nc(NS(=O)(=O)c3ccc(Cl)s3)c3c(O)cccc32)c1)[C@H]1COCCN1 [Example 111, (3R)—N-({3-[(3-{[(5-chloro-2-thienyl)sulfonyl]amino}-4-hydroxy-1H-indazol-1-yl)methyl]phenyl}methyl)-3-morpholinecarboxamide formate salt] | ≤ 126 nM
CNCC(=O)NCc1cccc(Cn2nc(NS(=O)(=O)c3ccc(Cl)s3)c3c(O)cccc32)c1 [Example 112, N^1-({3-[(3-{[(5-chloro-2-thienyl)sulfonyl]amino}-4-hydroxy-1H-indazol-1-yl)methyl]phenyl}methyl)-N^2-methylglycinamide formate salt] | ≤ 126 nM
CCNC(=O)NCc1cccc(Cn2nc(NS(=O)(=O)c3ccc(Cl)s3)c3c(OC)cccc32)c1 [Example 113, 5-Chloro-N-[1-{[3-({[(ethylamino)carbonyl]amino}methyl)phenyl]methyl}-4-(methyloxy)-1H-indazol-3-yl]-2-thiophenesulfonamide] | ≤ 126 nM
COc1ccc(Cn2nc(NS(=O)(=O)c3ccc(C)s3)c3c(OC)cccc32)cc1OC [Example 118, N-[1-{[3,4-Bis(methyloxy)phenyl]methyl}-4-(methyloxy)-1H-indazol-3-yl]-5-methyl-2-thiophenesulfonamide] | ≤ 126 nM
COc1cc(F)cc2c1c(NS(=O)(=O)c1ccc(Cl)s1)nn2Cc1cccc(CNC(C)=O)c1 [Example 129, N-[(3-{[3-{[(5-Chloro-2-thienyl)sulfonyl]amino}-6-fluoro-4-(methyloxy)-1H-indazol-1-yl]methyl}phenyl)methyl]acetamide] | ≤ 126 nM
COc1cccc2c1c(NS(=O)(=O)c1ccc(Cl)s1)nn2Cc1cccc(CNC(=O)[C@@H]2CCCN2)c1 [Example 158, N-[(3-{[3-{[(5-Chloro-2-thienyl)sulfonyl]amino}-4-(methyloxy)-1H-indazol-1-yl]methyl}phenyl)methyl]-L-prolinamide trifluoroacetate] | ≤ 126 nM
COc1cccc2c1c(NS(=O)(=O)c1ccc(Cl)s1)nn2Cc1cccc(CNC(=O)[C@@H]2CCN2)c1 [Example 159, (2S)—N-[(3-{[3-{[(5-Chloro-2-thienyl)sulfonyl]amino}-4-(methyloxy)-1H-indazol-1-yl]methyl}phenyl)methyl]-2-azetidinecarboxamide trifluoroacetate] | ≤ 126 nM
COc1cccc2c1c(NS(=O)(=O)c1ccc(C)s1)nn2Cc1cccc(CNC(=O)[C@H]2COCCN2)c1 [Example 160, (3R)—N-({3-[(4-(Methyloxy)-3-{[(5-methyl-2-thienyl)sulfonyl]amino}-1H-indazol-1-yl)methyl]phenyl}methyl)-3-] | ≤ 126 nM
CCN(CC)C(=O)c1ccc(Cn2nc(NS(=O)(=O)c3ccc(Cl)s3)c3c(OC)cccc32)cc1 [Example 163, 4-{[3-{[(5-Chloro-2-thienyl)sulfonyl]amino}-4-(methyloxy)-1H-indazol-1-yl]methyl}-N,N-diethylbenzamide] | > 1000 nM
O=C(NCc1cccc(Cn2nc(NS(=O)(=O)c3ccc(Cl)s3)c3c(O)cccc32)c1)[C@@H]1COCCN1 [Example 166, (3S)—N-({3-[(3-{[(5-Chloro-2-thienyl)sulfonyl]amino}-4-hydroxy-1H-indazol-1-yl)methyl]phenyl}methyl)-3-morpholinecarboxamide formate salt] | ≤ 126 nM

What follows are compounds tested against T1, CCR4 (Homo sapiens, UniProt P51679) (assay: [35S]-GTPγS SPA binding assay for CCR4 antagonist activity). Settings: CCR4 expressing CHO membranes; human MDC at EC80; [35S]-GTPγS competition.
T1 construct: expressed in transfected cells; host or cells: CHO cell membranes
T1 sequence (P51679 1-360): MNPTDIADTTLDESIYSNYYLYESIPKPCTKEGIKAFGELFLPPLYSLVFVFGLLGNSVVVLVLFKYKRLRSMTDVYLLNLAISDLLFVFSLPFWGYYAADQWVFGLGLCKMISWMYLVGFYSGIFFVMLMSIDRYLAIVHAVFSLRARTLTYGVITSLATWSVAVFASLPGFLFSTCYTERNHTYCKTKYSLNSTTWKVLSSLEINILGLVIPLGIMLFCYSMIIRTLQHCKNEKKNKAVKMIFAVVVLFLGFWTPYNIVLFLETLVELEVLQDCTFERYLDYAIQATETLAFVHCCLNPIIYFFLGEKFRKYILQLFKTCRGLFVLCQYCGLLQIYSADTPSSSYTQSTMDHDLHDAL
Format: biochemical
Description: [35S]-GTPγS SPA Binding Assays for CCR4 Antagonist Activity
Antagonist potency was determined by a radioligand [35S]-GTPγS competition assay. Briefly, CCR4 expressing CHO membranes were homogenised by passing through a 23G needle. These membranes were then adhered to WGA-coated Leadseeker SPA beads in assay buffer (20 mM HEPES, 10 mM MgCl2, 100 mM NaCl, 0.05% BSA, 40 ug/ml Saponin and pH adjusted to 7.4 using KOH 5M) to generate a 3 μg/well final assay concentration (FAC) membrane and 250 μg/well FAC bead, solution.
The bead/membrane/[35S]-GTPγS/Agonist suspension was dispensed into white Greiner polypropylene 384-well plates (45 μl/well), containing 0.5 μl of compound. […] Plates were then read on a Viewlux instrument and luminescence was then plotted as a percentage of the maximum inhibitional response elicited by an IC100 of a standard antagonist.

IC50 | Structure (SMILES)
3.98 to 15.8 nM | COc1cccc2c1c(NS(=O)(=O)c1ccc(Cl)s1)nn2Cc1cccc(CNC(=O)C[C@H](N)C(=O)O)c1 [Example 80, N^4-[(3-{[3-{[(5-Chloro-2-thienyl)sulfonyl]amino}-4-(methyloxy)-1H-indazol-1-yl]methyl}phenyl)methyl]-L-asparagine trifluoroacetate]
3.98 to 15.8 nM | CNCC(=O)NCc1cccc(Cn2nc(NS(=O)(=O)c3ccc(Cl)s3)c3c(OC)cccc32)c1 [Example 85, N^1-[(3-{[3-{[(5-Chloro-2-thienyl)sulfonyl]amino}-4-(methyloxy)-1H-indazol-1-yl]methyl}phenyl)methyl]-N^2-methylglycinamide trifluoroacetate]
3.98 to 15.8 nM | COc1cccc2c1c(NS(=O)(=O)c1ccc(Cl)s1)nn2Cc1cccc(CNC(=O)[C@@H](N)CO)c1 [Example 102, N^1-[(3-{[3-{[(5-Chloro-2-thienyl)sulfonyl]amino}-4-(methyloxy)-1H-indazol-1-yl]methyl}phenyl)methyl]-L-serinamide]
3.98 to 15.8 nM | COc1cccc2c1c(NS(=O)(=O)c1ccc(Cl)s1)nn2Cc1cccc(CNC(=O)[C@@H](N)Cc2c[nH]c3ccccc23)c1 [Example 114, N-[(3-{[3-{[(5-Chloro-2-thienyl)sulfonyl]amino}-4-(methyloxy)-1H-indazol-1-yl]methyl}phenyl)methyl]-L-tryptophanamide]
100 to 398 nM | COc1cccc2c1c(NS(=O)(=O)c1cccs1)nn2Cc1cccc(CNC(C)=O)c1 [Example 116, N-{[3-({4-(Methyloxy)-3-[(2-thienylsulfonyl)amino]-1H-indazol-1-yl}methyl)phenyl]methyl}acetamide]
